The record followed here is a melting point compilation (Tetko et al.; mined from patent text by program, amines drawn as free bases though some values may be those of a salt).

`COCc1ccc(-c2cn(-c3cc(C(=O)OC)c([N+](=O)[O-])cc3C(F)(F)F)cn2)cc1` had a melting point of 135 to 137 °C.
`CC(C)(C)NC(=O)[C@@H]1CN(C(=O)OC(C)(C)C)CCN1C(=O)OCc1ccccc1` gave a melting point of 134 to 135 °C.
For the compound `Cc1ccccc1C(=O)Nc1ccc(C(=O)N2CCCC(OCCO)c3cc(Cl)ccc32)cc1` (stereo unspecified), the melting point fell in the range of 185 to 188 °C.
In the case of `CC(NC(=O)CCCBr)c1ccccc1` (stereo unspecified), the melting point is 62 to 63 °C.
In the case of `O=C(O)c1ccccc1-n1nc(-c2ccccc2O)nc1-c1ccccc1O`, the melting point was in the range of 132 to 138 °C.
The compound `CN1C2CCC1CN(C(=O)c1ccc(-c3ccc(N)cc3)o1)C2` had a melting point of 190 to 191 °C.
For `CCc1cn2ccccc2c1S(=O)(=O)c1ccc(OS(=O)(=O)c2ccc(C)cc2)cc1`, the melting point was 190 °C.
With `CN(C)Cc1cccc(OCCCNc2nc(N)n[nH]2)c1`, the melting point fell in the range of 92 to 93 °C.
With `CS(=O)(=O)c1ccc2[nH]c(=O)c(C#N)cc2c1`, the melting point is above 310 °C.
The value for `COc1ccc(C(=O)Nc2ccccc2)cc1NS(=O)(=O)c1cc(Cl)sc1Cl` was 189 to 190 °C.
The value for `BrCCOc1cccc2c1SCCC2` was 62 °C; that for `COc1ccc2cc(CC(=O)NO)ccc2c1` was 177 to 180 °C.
The value for `CC(=O)SCCC1(C)C(=O)N2CCCC(C(=O)OC(C)(C)C)N2C1=O` (stereo unspecified) was 67 to 70 °C; that for `CC(=O)c1c(C)nc2c(OCc3c(Cl)ccc(S(=O)(=O)N4CCC[C@H]4C(=O)NCCCNC(=O)c4ccc(C(N)=NO)cc4)c3Cl)cccn12` was 164 to 166 °C.
Compound `CCOC(C#N)NC(=O)c1cccc(OC)c1` (stereo unspecified) displayed a melting point of 72 °C.
The value for `COc1ccc(S(=O)(=O)N(CC(F)(F)F)c2ccc(Cl)cc2Cc2c(F)cccc2F)cc1OC` was 70 °C.
The compound `CN1Cc2c(C(N)=O)ncn2-c2cccc(Cl)c2C1=O` yielded a melting point above 250 °C.
In the case of `O=C(O)Cc1c(-c2ccccc2)c2cc3c(cc2oc1=O)CCC3` it was 216 to 218 °C; in that of `CSC1NC(=O)N(c2ccc(C)cc2)C(=O)N1`, 276 to 278 °C; in that of `Cc1cc(-n2ccnc2)c2cccc(OCc3c(Cl)ccc(S(=O)(=O)N4CCC[C@H]4C(=O)NCC4CCN(C(=O)OC(C)(C)C)CC4)c3Cl)c2n1`, 100 °C.
The value for `CN(C)S(=O)(=O)c1cc(C(=O)Cl)ccc1Cl` was 103 to 105 °C; that for `Cc1ccc(N2C(=O)C(O)=C(C(=O)c3ccc(C(C)C)cc3)C2c2ccc(N3CCOCC3)cc2)nn1` (stereo unspecified) was 293 to 294 °C; that for `O=c1nc(-c2cccc(Sc3ccncc3)n2)sc2ccccc12` was 245 to 246 °C.
The value for `Cc1ccccc1N1CCN(Cc2n[nH]c3ccccc23)CC1` was 135 to 136 °C; that for `CON=C(C)C1=CCCN(O)C1` was 94 to 96 °C; that for `C=CCOC(=O)NC(=O)C(C)(c1ccccc1)c1ccccc1` was 89 °C.
In turn, `Cc1cc(OCc2ccccc2)c(C)c([N+](=O)[O-])c1` had a melting point of 66 to 68 °C.
The value for `CCc1ccc(C(O)COc2ccc(C=O)cc2)nc1` (stereo unspecified) was 80 °C; that for `CNC(=O)CCC12CC(c3ccccc31)c1ccccc12` was 200 to 201 °C.
`O=C(O)CCCC(=O)N[C@@H](Cc1ccc(-c2ccccc2)cc1)C(=O)NCCCCNc1ncccn1` had a melting point of 228 °C.
The value for `O=C(NC(=O)c1c(Cl)cccc1Cl)Nc1ccc(F)c(C(F)(F)F)c1Cl` was 227 to 230 °C.
In the case of `O=C(O)c1cn2c3c(cccc3c1=O)C1CCCCC12` (stereo unspecified) it was 238 to 241 °C; in that of `CCOC(=O)CC1CCc2[nH]c3ccccc3c2C1` (stereo unspecified), 122 to 123 °C; in that of `NNc1c(Cl)cc(C(F)(F)F)c(F)c1Cl`, 50 to 51 °C.
`O=c1cc(CN2CCCC2)[nH]c(=O)[nH]1` yielded a melting point of 176 to 178 °C.
Take `O=C(O)c1cc([N+](=O)[O-])ccc1Nc1ccc(CCCc2ccc(Cl)c(Cl)c2)cc1`: the melting point was 153 to 155 °C.
